# Measurements from patent US20230330019A1, “EMULSION FORMULATIONS OF POORLY WATER-SOLUBLE COMPOUNDS” (priority 2022, published 2023).
# Where two headings read alike, the source gives them in different places.
# Assays:
# [1] = Water solubility of exemplified compounds, USP solubility definition; type: physicochemical
# Excerpt: “Solubility” generally refers to the degree to which a substance dissolves in a solvent to make a solution (usually expressed as grams of solute per liter of solvent). Solubility of one fluid (liquid or gas) in another may be complete (totally miscible; e.g., methanol and water) or partial (e.g., oil and water dissolve only slightly). In general, “like dissolves like” (e.g., aromatic hydrocarbons dissolve in each other but not in water). Solubility is the ability of a solid, liquid, or gaseous chemical substance (referred to as the solute) to dissolve in a solvent (usually a liquid) and form a solution. The solubility of a substance depends on the types of solvent used, their polarity, and the temperature and pressure to which they are subjected. The solubility of a substance in a particular solvent is measured by the concentration of the saturated solution. A solution is considered saturated when adding additional solute no longer increases the concentration of the solution. The degree of solubility ranges widely depending on the substances, from infinitely soluble (fully miscible), such as ethanol in water, to poorly soluble, such as silver chloride in water. The term “insoluble” is often applied to poorly soluble compounds. Under certain conditions, the equilibrium solubility can be exceeded, yielding a supersaturated solution.
# “Poorly water-soluble chemical compounds”: The United States Pharmacopeia (USP) designates the solubility of drugs as parts of solvent required for one part solute. […] The USP lists the solubility of a drug as the quantity of milliliters of solvent in which 1 g of solute will dissolve and assigns a descriptive term in the summary provided below.
# Janus kinase 3 (JAK3) = biological target: T1, Janus kinase 3 (JAK3) (Homo sapiens, UniProt P52333); settings: cited from earlier work
# T1 sequence (P52333 1-1124): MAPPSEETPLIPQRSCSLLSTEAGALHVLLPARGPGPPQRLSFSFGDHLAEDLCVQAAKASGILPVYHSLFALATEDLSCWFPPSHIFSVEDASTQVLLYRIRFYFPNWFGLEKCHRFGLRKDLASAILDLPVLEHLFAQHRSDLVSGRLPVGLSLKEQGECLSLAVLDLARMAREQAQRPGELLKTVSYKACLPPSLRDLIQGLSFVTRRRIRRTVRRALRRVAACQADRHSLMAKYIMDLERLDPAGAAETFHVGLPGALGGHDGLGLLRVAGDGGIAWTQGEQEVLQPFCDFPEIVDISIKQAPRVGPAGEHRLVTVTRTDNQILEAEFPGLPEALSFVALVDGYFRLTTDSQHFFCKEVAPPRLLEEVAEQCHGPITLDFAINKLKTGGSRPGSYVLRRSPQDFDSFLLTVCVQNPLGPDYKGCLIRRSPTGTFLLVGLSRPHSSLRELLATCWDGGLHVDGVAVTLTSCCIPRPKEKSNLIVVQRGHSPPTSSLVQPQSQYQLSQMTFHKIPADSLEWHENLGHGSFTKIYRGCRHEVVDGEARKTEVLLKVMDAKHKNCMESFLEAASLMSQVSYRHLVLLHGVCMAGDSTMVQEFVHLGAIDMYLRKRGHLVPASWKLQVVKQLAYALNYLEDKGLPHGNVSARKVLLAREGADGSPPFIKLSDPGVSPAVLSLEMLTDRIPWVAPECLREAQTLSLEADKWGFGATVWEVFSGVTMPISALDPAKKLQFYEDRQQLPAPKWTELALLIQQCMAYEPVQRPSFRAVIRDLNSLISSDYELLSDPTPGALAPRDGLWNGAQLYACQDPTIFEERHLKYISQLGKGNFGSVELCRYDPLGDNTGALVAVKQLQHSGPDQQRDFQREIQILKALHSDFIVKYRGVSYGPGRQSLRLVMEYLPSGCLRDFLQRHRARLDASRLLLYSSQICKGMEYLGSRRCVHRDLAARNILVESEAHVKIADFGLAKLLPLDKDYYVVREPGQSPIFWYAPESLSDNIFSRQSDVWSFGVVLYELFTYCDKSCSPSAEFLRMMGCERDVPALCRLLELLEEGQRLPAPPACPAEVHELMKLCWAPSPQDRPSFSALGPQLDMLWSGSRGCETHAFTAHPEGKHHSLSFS
# [2] = cited from earlier work
# [3] = Solubility screening panel in DEGEE; type: physicochemical
# Excerpt: Fisetin, trans-resveratrol, and milk thistle extract (comprising silymarin) were all found to be soluble in DEGEE in a solubility screening panel evaluating surfactants and other emulsifiers for use in topical delivery. An initial objective was to find a suitable miscible oil for use in hair applications, such as argan, sesame, sunflower, fractionated coconut, and grape seed oils. […] The next step was to evaluate oil soluble emulsifiers, such as glyceryl oleate, sorbitan oleate, lauryl oleate, and lauryl sulfate. […] Oleic acid (a fatty acid) is known to be miscible with DEGEE, but it is a […] fatty acid, which makes it an unfavorable choice for use in a long-term topical dosing formulation. Oleic acid was evaluated with a mixture of sorbitan laurate, polyglyceryl-4 laurate, and dilauryl citrate. This formulation made a miscible mixture with fisetin, trans-resveratrol, and milk thistle dissolved in DEGEE. However, the dilution of the mixture with water created a suspension, and once again, the solids precipitated out after approximately one hour.
# [4] = cited from earlier work; remark: listed apart in the source
# [5] = cited from earlier work; remark: listed apart in the source
# [6] = cited from earlier work; remark: listed apart in the source
Definition (USP solubility descriptive term) ([1]; water),mass_water/mass_solute ([1]; water),Molecule,Water Solubility [2] [µg/mL],solubility in DEGEE [3],reported aqueous solubility [2],also measured
,,Silymarin,,,,"Definition (USP solubility descriptive term) [1]: very slightly insoluble; mass_water/mass_solute [1]: 2,500"
,,C/C=C(/C)C(=O)O[C@H]1[C@@H]2[C@H](C)C(=O)O[C@@H]2C[C@@H](C)[C@@H]2C=CC(=O)[C@]21C [Brevilin A],,,,inhibition of JAK3 (Janus kinase 3 (JAK3)): inhibit
very slightly insoluble,"2,500",O=C1c2c(O)cc(O)cc2O[C@H](c2ccc(O)c(O)c2)[C@H]1O [Dihydroquercetin],400,,,
,,"O=C(O[C@@H]1Cc2c(O)cc(O)cc2O[C@@H]1c1cc(O)c(O)c(O)c1)c1cc(O)c(O)c(O)c1 [EGCG, [(2R,3R)-5,7-dihydroxy-2-(3,4,5-trihydroxyphenyl)chroman-3-yl]3,4,5-trihydroxybenzoate]",,,,time at which blood levels peak ([5]; after consumption (oral)): ≤ 1.7 h; time by which majority of unchanged EGCG is excreted into the urine ([5]; from almost immediately): ≤ 8 h; absorbed plasma half-life ([5]; oral): about 5 hours
practically insoluble,"33,333","Oc1ccc(/C=C/c2cc(O)cc(O)c2)cc1 [trans-Resveratrol, 5-[(E)-2-(4-hydroxyphenyl)ethen-1-yl]benzene-1,3-diol]",,soluble,about 0.03 mg/mL,half-life ([6]; in vivo): about 15 min; bioavailability ([6]; oral): about 0.5%

Molecule,Definition (USP solubility descriptive term) ([1]; water),mass_water/mass_solute ([1]; water),Water Solubility [2] [µg/mL],solubility in DEGEE [3],reported aqueous solubility [2],also measured
"O=c1c(O)c(-c2ccc(O)c(O)c2)oc2cc(O)ccc12 [Fisetin, 2-(3,4-dihydroxyphenyl)-3,7-dihydroxy-4H-1-benzopyran-4-one]",practically insoluble,"100,000",10,soluble,about 0.01 mg/mL,log P [4]: 3.2; aqueous solubility ([2]; literature): 10.45 µg/mL
